pIC50: −log10 of the molar value. Values after ≈ are worked out from the molar mass of the structure shown. Read-outs that look alike come from different tables or passages of the source.
What was measured:
[1] = target: purified DHFR of strain 157/4696 of Staphylococcus aureus (Staphylococcus aureus, UniProt P13955); assay: biochemical
[2] = test system: Staphylococcus aureus 101; assay: MIC against Staphylococcus aureus 101; assay type: cell-based; conditions: Staphylococcus aureus 101, MRSA- and trimethoprim-resistant, clinical isolate, read-out: MIC Sa101
[3] = target: T1, purified DHFR of strain Sp1/1 of Streptococcus pneumoniae (Streptococcus pneumoniae serotype 4, UniProt Q54801); assay type: biochemical; conditions: IC50 against purified DHFR of strain Sp1/1
T1 sequence (Q54801 1-168 I100L): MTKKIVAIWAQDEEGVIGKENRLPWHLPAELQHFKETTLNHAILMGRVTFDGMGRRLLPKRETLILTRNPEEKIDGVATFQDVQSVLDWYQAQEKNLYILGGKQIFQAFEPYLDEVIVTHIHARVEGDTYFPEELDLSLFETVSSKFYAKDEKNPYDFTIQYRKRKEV

[4] = test system: Streptococcus pneumoniae 1/1; assay: MIC against Streptococcus pneumoniae 1/1; assay type: cell-based; conditions: Streptococcus pneumoniae 1/1, trimethoprim- and penicillin-resistant, serotype 6, clinical isolate, read-out: MIC Sp1/1

Chain of purified DHFR of strain 157/4696 of Staphylococcus aureus (P13955 whole entry): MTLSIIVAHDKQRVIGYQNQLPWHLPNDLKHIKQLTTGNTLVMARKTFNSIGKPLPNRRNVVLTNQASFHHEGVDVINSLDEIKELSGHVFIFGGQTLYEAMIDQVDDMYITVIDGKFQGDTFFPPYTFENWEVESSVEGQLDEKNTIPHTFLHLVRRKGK

Row | Structure (SMILES) | pIC50 [1] | MIC ([2]; Table 2) [µg/mL] | pIC50 ([3]; Table 2) | MIC ([4]; Table 2) [µg/mL] | MIC ([2]; Table 1) [µg/mL] | pIC50 ([3]; Table 1) | MIC ([4]; Table 1) [µg/mL]
1 | CCCS(=O)(=O)Oc1cc(Cc2cnc(N)nc2N)cc(OCC)c1-c1ccc2c(c1)OCO2 [Example 17-d, Propane-1-sulphonic acid 2-benzo[1.3]dioxol-5-yl-5-(2,4-diamino-pyrimidin-5-ylmethyl)-3-ethoxy-phenyl ester] | 6.82 | 4 (≈ 8.22 µM) | 7.85 | 1 (≈ 2.06 µM) | – | – | –
2 | CCOc1cc(Cc2cnc(N)nc2N)cc(OCC(C)C)c1-c1ccc2c(c1)OCO2 [Example 10-c, 5-(4-Benzo[1,3]dioxol-5-yl-3-ethoxy-5-isobutoxy-benzyl)-pyrimidine-2,4-diamine] | 5.30 | 8 (≈ 18.3 µM) | 7.96 | 4 (≈ 9.16 µM) | – | – | –
3 | CCOc1cc(Cc2cnc(N)nc2N)cc(OS(=O)(=O)N(C)CC)c1-c1ccc(C)c(N)c1 [Example 31-b, N-Ethyl-N-methyl-sulphamic acid 3′-amino-4-(2,4-diamino-pyrimidin-5-ylmethyl)-6-ethoxy-4′-methyl-biphenyl-2-yl ester] | 6.89 | 2 (≈ 4.11 µM) | 8.36 | 1 (≈ 2.06 µM) | – | – | –
4 | CCOc1cc(Cc2cnc(N)nc2N)cc(OS(=O)(=O)N(C)C2CC2)c1-c1ccc(N)cc1 [Example 22e, N-Cyclopropyl-N-methyl-sulphamic acid 4′-amino-4-(2,4-diamino-pyrimidin-5-ylmethyl)-6-ethoxy-biphenyl-2-yl ester] | 6.82 | – | – | – | 2 (≈ 4.13 µM) | 7.89 | 1 (≈ 2.06 µM)
5 | CCOc1cc(Cc2cnc(N)nc2N)cc(OCC)c1-c1ccc([S+](C)[O-])cc1 (racemic) [Example 02-j, (RS)-5-(2,6-Diethoxy-4′-methanesulphinyl-biphenyl-4-ylmetyl)-pyrimidine-2,4-diamine] | 5.77 | 8 (≈ 18.8 µM) | 7.14 | 4 (≈ 9.38 µM) | – | – | –
6 | CCOc1cc(Cc2cnc(N)nc2N)cc(OS(=O)(=O)N(C)C2CC2)c1-c1ccc(NC)cc1 [Example 26-d, N-Cyclopropyl-N-methyl-sulphamic acid 4-(2,4-diamino-pyrimidin-5-ylmethyl)-6-ethoxy-4′-methylamino-biphenyl-2-yl ester] | 6.85 | 1 (≈ 2.01 µM) | 8.29 | 1 (≈ 2.01 µM) | – | – | –
7 | CCCOc1cc(Cc2cnc(N)nc2N)cc(OCCC)c1-c1cccc(N)c1 [Example 51-, 5-(3′-Amino-2,6-di-n-propoxy-biphenyl-4-ylmethyl)-pyrimidine-2,4-diamine] | 5.07 | 8 (≈ 19.6 µM) | 7.37 | 2 (≈ 4.91 µM) | – | – | –
8 | CCOc1cc(Cc2cnc(N)nc2N)cc(OS(=O)(=O)N(CC)CC)c1-c1ccc(O)cc1 [Example 20-h, Diethyl-sulphamic acid 4-(2,4-diamino-pyrimidin-5-ylmethyl)-6-ethoxy-4′-hydroxy-biphenyl-2-yl ester] | 6.46 | 2 (≈ 4.1 µM) | 8.04 | 1 (≈ 2.05 µM) | – | – | –
9 | CCOc1cc(Cc2cnc(N)nc2N)cc(OS(=O)(=O)CC(C)(C)OC)c1-c1cccc(N)c1 [Example 39-a, (2-Methoxy-2-methyl-propane)-1-sulphonic acid 3′-amino-4-(2,4-diamino-pyrimidin-5-ylmethyl)-6-ethoxy-biphenyl-2-yl ester] | 6.41 | 4 (≈ 7.97 µM) | 8.38 | 1 (≈ 1.99 µM) | – | – | –
10 | CCOc1cc(Cc2cnc(N)nc2N)cc(OCC2(C#N)CC2)c1-c1ccc(O)cc1 [Example 08-f, 1-[4-(2,4-Diamino-pyrimidin-5-ylmethyl)-6-ethoxy-4′-hydroxy-biphenyl-2-yloxymethyl]-cyclopropanecarbonitrile] | 6.02 | 8 (≈ 18.5 µM) | 7.31 | 4 (≈ 9.27 µM) | – | – | –
11 | CCOc1cc(Cc2cnc(N)nc2N)cc(OCC)c1-c1ccc(N)c(F)c1 [Example 04-r, 5-(4′-Amino-2,6-diethoxy-3′-fluoro-biphenyl-4-3dmethyl)-Ryrimidine-2,4-diamine] | 5.49 | 8 (≈ 20.1 µM) | 7.07 | 4 (≈ 10.1 µM) | – | – | –
12 | CCOc1cc(Cc2cnc(N)nc2N)cc(OS(=O)(=O)N(C)CC)c1-c1ccc(CN2CCOCC2)c(N)c1 [Example 30-c, N-Ethyl-N-methyl-sulphamic acid 3′-amino-4-(2,4-diamino-pyrimidin-5-ylmethyl)-6-ethoxy-4′-morpholin-4-ylmethyl-biphenyl-2-yl ester] | 6.85 | 2 (≈ 3.5 µM) | 7.80 | 2 (≈ 3.5 µM) | – | – | –
13 | CCOc1cc(Cc2cnc(N)nc2N)cc(OCC)c1-c1ccc(S(C)(=O)=O)cc1 [Example 02-i, 5-(2,6-Diethoxy-4′-methanesulphonyl-biphenyl-4-ylmethyl)-pyrimidine-2,4-diamine] | 5.80 | 8 (≈ 18.1 µM) | 7.00 | 2 (≈ 4.52 µM) | – | – | –
14 | CCOc1cc(Cc2cnc(N)nc2N)cc(OS(=O)(=O)N(C)C)c1-c1ccccc1 [Example 43-b, Dimethylsulphamic acid 4-(2,4-diamino-pyrimidin-5-ylmethyl)-6-ethoxy-biphenyl-2-yl ester] | 6.59 | 1 (≈ 2.25 µM) | 8.01 | 1 (≈ 2.25 µM) | – | – | –
15 | CCOc1cc(Cc2cnc(N)nc2N)cc(OS(=O)(=O)CC2CCCO2)c1-c1ccc(N)c(C)c1 (centres unmarked) [Example 42-c, Tetrahydrofuran-2-yl-methanesulphonic acid 4′-amino-4-(2,4-diamino-pyrimidin-5-ylmethyl)-6-ethoxy-3′-methyl-biphenyl-2-yl ester] | 6.52 | 8 (≈ 15.6 µM) | 8.20 | 1 (≈ 1.95 µM) | – | – | –
16 | CCOc1cc(Cc2cnc(N)nc2N)cc(OS(=O)(=O)N(C)CC)c1-c1cccc(N)c1 [Example 19-f, N-Ethyl-N-methyl-sulphamic acid 3′-amino-4-(2,4-diamino-vyrimidin-5-ylmethyl)-6-ethoxy-biphenyl-2-yl ester] | 7.09 | 1 (≈ 2.12 µM) | 8.21 | 1 (≈ 2.12 µM) | – | – | –
17 | CCOc1cc(Cc2cnc(N)nc2N)cc(OS(=O)(=O)c2ccc(OC)c(F)c2)c1-c1ccc(O)cc1 [Example 15-j, 3-Fluoro-4-methoxy-benzenesulphonic acid 4-(2,4-diamino-pyrimidin-5-ylmethyl)-6-ethoxy-4′-hydroxy-biphenyl-2-yl ester] | 6.26 | 8 (≈ 14.8 µM) | 8.77 | 1 (≈ 1.85 µM) | – | – | –
18 | CCOc1cc(Cc2cnc(N)nc2N)cc(OS(=O)(=O)N(C)C)c1-c1ccc(OC(C)=O)cc1 [Example 62-, 4′-(2,4-Diamino-pyrimidin-5-ylmethyl)-2′-dimethylsulphamoylxy-6′-ethoxy-biphenyl-4-yl acetate] | 6.48 | 2 | 8.10 | 2 | – | – | –
19 | CCOc1cc(Cc2cnc(N)nc2N)cc(OCCc2ccccn2)c1-c1ccc(O)cc1 [Example 08-g, 4′-(2,4-Diamino-pyrimidin-5-ylmethyl)-6′-ethoxy-2′-(2-pyridin-2-yl-ethoxy)-biphenyl-4-ol] | 5.89 | 8 (≈ 17.5 µM) | 7.28 | 4 (≈ 8.74 µM) | – | – | –
20 | CCOc1cc(Cc2cnc(N)nc2N)cc(OS(=O)(=O)N(CC)CC)c1-c1ccc(N)cc1 [Example 22-f, Diethylsulphamic acid 4′-amino-4-(2,4-diamino-pyrimidin-5-ylmethyl)-6-ethoxy-biphenyl-2-yl ester] | 6.82 | 2 (≈ 4.11 µM) | 7.85 | 1 (≈ 2.06 µM) | – | – | –
